Data taken from patent publication US9029362B2, “Iminothiadiazine dioxide compounds as brace inhibitors, compositions, and their use” (Merck Sharp & Dohme Corp., priority 2009, dated 2015).
Where two headings read alike, the source gives them in different places. One block for each molecule: values may come before it.

Experiments:
[1] = Caco-2 Bi-directional Permeability; type: in vitro ADME; settings: human; for Papp A→B at 2 h: Caco-2, pH 7.4, apical to basolateral, 2-hr incubation, read-out: Caco-2 AP → BL (nm/s) (Iminothiadiazine Dioxide)
Procedure: (§1) The bi-directional permeability with efflux potential of selected compounds of the invention vs. otherwise structurally identical iminopyrimidinones (collectively referred to as test compounds, shown in the table below) were assessed using Caco-2 cell line. The Caco-2 cells were maintained in DMEM (Dulbecco's Modified Eagle Medium) containing 10% fetal bovine serum, 1% non-essential amino acids, 2 mM L-glutamine, and 1% penicillin-streptomycin in an incubator at ˜37° C. in an atmosphere of 5% CO2 and about 90% relative humidity. The cell culture medium was changed three times weekly. Caco-2 cell monolayers were grown on polyethylene terephthalate filters using 24-well BD Falcon™ Cell Culture Insert Plates (0.33 cm^2 insert area, 1 μm pore size; BD BioSciences, Bedford, Mass.). The culture medium of the plate was changed every other day until used for the transport experiment (21-28 days post seeding).
(§2) The transport buffer (TM) was Hank's balanced salt solution (HBSS) with 10 mM HEPES and 25 mM glucose (pH 7.4) for dosing and TM with 4% bovine serum albumin for receiver (pH 7.4). The bi-directional permeability of the test compounds were tested at concentrations of 1, 10 and 100 μM was measured in triplicate with 2-hr incubation. The cell monolayer integrity was monitored with pre- and post-experimental trans-epithelial electrical resistance and post-experimental Lucifer Yellow (LY) permeability with 1 hr incubation.
(§3) The apparent permeability, recovery and efflux ratio values were calculated using the following equations:

[2] = system: rat cortex Aβ40; test: Cortical Aβ40 in rats after oral dose (Luminex immunoassay); type: in vivo; settings: 3 h after a 10 mg/kg oral dose, relative to vehicle cohort; for Change in rat cortex Aβ40 (Iminopyrimidinone): iminopyrimidinone analog
Procedure: Male CD rats (˜100 g; Crl:CD(SD); Charles River Laboratories, Kingston, N.Y.) were group housed and acclimated to the vivarium for 5-7 days prior to use in a study. Compounds were formulated in 20% hydroxypropyl-β-cyclodextrin and administered orally with a dosing volume of 5 ml/kg for rats. Three h after drug administration, rats were euthanized with excess CO2. The brain was removed from the skull and immediately frozen on dry ice. All tissues were stored at −70° C. until Aβ quantification.
Ab585 was labeled with biotin (b-Ab585) by first dialyzing the antibody sample extensively versus PBS (pH 7.8) to remove impurities, followed by dilution to between 1 and 2 mg/mL protein concentration. EZ-Link Sulfo-NHS-LC-Biotin (Pierce) was dissolved in PBS (pH 7.8) at a concentration of 1 mg/mL immediately prior to use. Ab585 was labeled with EZ-Link Sulfo-NHS-LC-biotin using a 10:1 biotin:antibody ratio by incubation at room temperature for 1 hour. The labeling reaction was quenched by addition of 1.0 M glycine to a final concentration of 0.1 M followed by 10 minute incubation at room temperature. Glycine was removed by extensive dialysis versus PBS.
The antibody was coupled to the beads using the Bio-Plex Amine Coupling Kit (Bio-Rad) as per the manufacturer's recommendations.
Rat brains were thawed briefly at 37° C. and both mid- and hindbrain regions were removed. The remaining material, consisting primarily of cortex (−800 mg) was carried through the guanidine extraction procedure. Cortices were added to a 2 ml BioPur tube (Eppendorf) along with a 6.35 mm chrome-coated steel ball and 1.0 ml of sucrose homogenization buffer (20 mM HEPES [pH 7.5], 50 mM KCl, 50 mM sucrose, 2 mM EDTA, 2 mM EGTA supplemented with complete protease inhibitors [Roche, EDTA-free]). Samples were then homogenized by agitation for 1.5 min at 30 cylces/sec in a MM300 tissue mixer (Retsch®). The resulting cortical homogenate was extracted with guanidine-HCl by mixing 67 μl of homogenate with 133 μl of 5 M Guanidine HCl, 50 mM Tris HCl (pH 8.0). To maximize the efficiency of Aβ extraction, samples were vortexed and then sonicated for 2 minutes in an ice bath using an Ultrasonics XL cup horn sonicator at a power setting of 8 (Heat Systems, Inc.). Insoluble material was removed by ultracentrifugation using a using a TLA-55 rotor in a TL-100 benchtop centrifuge (Beckman) at 100,000×g for 30 minutes. The resulting supernatant was then either diluted 1:10 in 5 M guanidine HCl, 0.05 M Tris HCl (pH 8.0) for protein analysis (BCA protein assay, Pierce Biochemicals) or assayed neat for Aβ340 levels. The Luminex rodent A1340 assay was performed as follows. First, 96 well filter binding plates (Millipore, catalogue #MSBVN12) were wetted with 100 μl of 1×LAβ40 buffer (0.05 M HEPES [pH 7.5], 0.2% BSA, 0.2% Tween-20, 0.15 M NaCl) by vacuum filtration on a Millipore 96-well manifold. […] Guanidine HCl was added to synthetic rodent Aβ40 standards in order to control for the effect of guanidine in brain extracts on the assay performance. Ten microliters of cortical extract, rodent Aβ40 standards or cortical extract from amyloid precursor protein knockout mice (to define background immunoreactivity) was added to each well. Plates were covered and incubated overnight at 4° C. Following the incubation, wells were cleared by vacuum and washed twice with 100 μl of 1×LAβ40 buffer on a Millipore manifold. Phycoerythrin-conjugated streptavidin (PE-strepavidin, BioRad) for detection of bound b-Ab585 was diluted 100-fold in 1×LA340 buffer and 50 μl was added to each well and incubated for 1 hour at room temperature with shaking.

[3] = system: Caco-2 cells; test: Caco-2 Bi-directional Permeability; type: in vitro ADME; settings: apical to basolateral, 2-hr incubation; for Caco-2 AP → BL (nm/s) (Iminopyrimidinone): iminopyrimidinone analog
Procedure: as §1, §2, §3

[4] = molecular target: purified human autoBACE-2 (Homo sapiens (Human), UniProt Q9Y5Z0); test: BACE-2 Assay (BACE-HTRF assay); type: biochemical
Chain of purified human autoBACE-2 (Q9Y5Z0 63-518): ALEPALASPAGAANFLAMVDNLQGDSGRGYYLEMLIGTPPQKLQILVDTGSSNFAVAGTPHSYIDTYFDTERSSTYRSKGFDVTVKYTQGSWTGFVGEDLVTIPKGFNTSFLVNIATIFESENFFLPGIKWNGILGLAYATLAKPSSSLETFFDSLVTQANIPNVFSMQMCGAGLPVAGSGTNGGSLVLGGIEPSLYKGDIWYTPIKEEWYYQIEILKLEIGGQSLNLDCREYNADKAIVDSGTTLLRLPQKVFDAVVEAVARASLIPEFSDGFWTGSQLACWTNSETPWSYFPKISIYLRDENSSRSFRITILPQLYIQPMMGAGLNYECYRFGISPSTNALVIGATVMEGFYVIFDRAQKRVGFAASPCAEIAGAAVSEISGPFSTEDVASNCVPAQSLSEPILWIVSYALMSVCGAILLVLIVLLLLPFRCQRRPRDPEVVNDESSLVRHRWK
Procedure: Inhibitor IC50s at purified human autoBACE-2 were determined in a time-resolved endpoint proteolysis assay that measures hydrolysis of the QSY7-[sequence]-Eu-amide FRET peptide substrate (BACE-HTRF assay). […] DMSO was present at 5% final concentration in the assay. Following laser excitation of sample wells at 320 nm, the fluorescence signal at 620 nm was collected for 400 ms following a 50 s delay on a RUBYstar HTRF plate reader (BMG Labtechnologies). Raw RFU data was normalized to maximum (1.0 nM BACE/DMSO) and minimum (no enzyme/DMSO)RFU values. […] The Ki values were calculated from the IC50 using the Cheng-Prusoff equation.

[5] = molecular target: soluble human BACE1 catalytic domain (Homo sapiens (Human), UniProt P56817); test: BACE1 HTRF FRET Assay; type: biochemical; settings: about values; read-out: Ki value in BACE-1 assay
Chain of soluble human BACE1 catalytic domain (P56817 75-416): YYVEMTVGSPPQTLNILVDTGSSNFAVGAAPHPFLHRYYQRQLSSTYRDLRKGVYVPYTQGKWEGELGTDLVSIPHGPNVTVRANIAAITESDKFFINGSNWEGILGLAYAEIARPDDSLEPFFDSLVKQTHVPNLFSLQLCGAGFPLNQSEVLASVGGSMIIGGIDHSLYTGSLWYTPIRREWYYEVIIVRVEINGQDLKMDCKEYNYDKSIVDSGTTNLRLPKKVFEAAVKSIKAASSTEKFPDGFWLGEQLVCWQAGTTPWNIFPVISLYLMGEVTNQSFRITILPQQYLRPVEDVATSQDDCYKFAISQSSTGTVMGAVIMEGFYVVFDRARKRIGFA

[6] = Solution stability, Example A (pH 7.4 phosphate buffer/MeOH, LC/MS); type: physicochemical
Procedure: A 1.05 mg/mL stock solution (5 mL) of Ex. 45 in MeOH was prepared. From the stock solution was taken out 1.25 mL and diluted to 25 mL with the addition of 23.75 mL of 10 mM phosphate buffer (pH 7.4)/MeOH (70/30 v/v). This new solution was split into three. One solution was incubated at 4° C., another incubated at 25° C. and the third incubated at 40° C. Each solution was analyzed by LC/MS after day 1, day 2 and day 6 and compared to a standard calibration curve for Ex. 45.
In the following study, the solution stability of the compound of Example 45 was measured and compared to that of Compound Z. The compound of Example 45 is an iminothiadiazine dioxide compound of the invention. Compound Z is the corresponding iminopyrimidinone compound. The structures of the compound of Example 45 and of Compound Z are shown below. Studies were performed in aqueous pH 7.4 buffer containing methanol at 4° C., 25° C. and 40° C.

[7] = Solution stability, Example B (pH 7.4 phosphate buffer/acetonitrile, 25° C., LC/MS); type: physicochemical; settings: pH 7.4 buffer at 25° C., after 6 days
Procedure: Stock solutions of the tested compounds were prepared by dissolving about 3 mg of each compound in 3 mL of acetonitrile. Standards for test compounds were prepared by diluting 1 mL of the stock solution with an additional 4 mL of acetonitrile. These standards were stored at 4° C. Samples were prepared by diluting 1 mL of the stock solution with 4 mL of 50 mM pH 7.4 phosphate buffer. These samples were stored at 25° C. in the absence of light. Standards and samples were analyzed by LC/MS initially and at day 1, day 4, and day 6.
HPLC Conditions: • Mobile phase A: 10 mM pH 5 ammonium acetate buffer: methanol (90:10) • Mobile phase B: 10 mM pH 5 ammonium acetate buffer: methanol (10:90)
Column: Zorbax SB-Phenyl 4.6×50 mm, 1.8 μm • Column temperature: 40° C. • Flow: 0.8 mL/min. • Gradient:
• Detectors: UV at 220 nm and 236 nm
MS, ES ionization, positive mode, for identification only at final time point.
The terms reported in the tables below have the following meanings:
Area % is the integration of peak from HPLC as reported by Waters Empower II software.
RRT is the relative retention time of new product compared to the standard of the test compound.
In the following study, the solution stability of the compound of Example 47 was measured and compared to that of Compound Y. The compound of Example 47 is an iminothiadiazine dioxide compound of the invention. […]

Papp A→B at 2 h [1]: 15.1 ×10⁻⁶ cm/s
SMILES: Cc1ccc(C(=O)Nc2ccc(F)c([C@]3(C)CS(=O)(=O)N(C)C(=N)N3)c2)nc1 [Example 35]

Papp A→B at 2 h [1]: 13.3 ×10⁻⁶ cm/s
SMILES: COc1cnc(C(=O)Nc2ccc(F)c([C@]3(C)CS(=O)(=O)N(C)C(=N)N3)c2)cn1 [Example 40ai]
Change in rat cortex Aβ40 (Iminothiadiazine Dioxide) [2]: −51%

SMILES: CN1C(=N)N[C@](C)(c2cc(NC(=O)c3ccc(F)cn3)ccc2F)CC1=O [drawing 709, reference compound]
Change in rat cortex Aβ40 (Iminopyrimidinone) [2]: −11%

SMILES: CN1C(=N)N[C@](C)(c2cc(NC(=O)c3ccc(C(F)(F)F)cn3)ccc2F)CC1=O [drawing 707, reference compound]
Change in rat cortex Aβ40 (Iminopyrimidinone) [2]: 0%

Papp A→B at 2 h [1]: 13.6 ×10⁻⁶ cm/s
SMILES: COc1cnc(C(=O)Nc2cc(F)c(F)c([C@]3(C)CS(=O)(=O)N(C)C(=N)N3)c2)cn1 [Example 40di]
Change in rat cortex Aβ40 (Iminothiadiazine Dioxide) [2]: −38%

Caco-2 AP → BL (nm/s) (Iminopyrimidinone) [3]: 153 nm/s
SMILES: CC#Cc1cncc(-c2cc(Cl)c([C@]3(C)CC(=O)N(C)C(=N)N3)s2)c1 [drawing 745, reference compound]

SMILES: CN1C(=N)N[C@](C)(c2cc(NC(=O)c3ccc(Cl)cn3)ccc2F)CC1=O [drawing 705, reference compound]
Change in rat cortex Aβ40 (Iminopyrimidinone) [2]: −19%

Ki ([4]; about values): ≥ 500 nM
SMILES: CN1C(=N)N[C@](C)(c2cc(NC(=O)c3ccc(S(C)(=O)=O)cn3)cc(F)c2F)CS1(=O)=O [Example 40do]

Caco-2 AP → BL (nm/s) (Iminopyrimidinone) [3]: 17 nm/s
SMILES: CN1C(=N)N[C@](C)(c2cc(NC(=O)c3ccc(C(F)(F)F)cn3)ccc2F)CC1=O [drawing 729, reference compound]

Caco-2 AP → BL (nm/s) (Iminopyrimidinone) [3]: 11 nm/s
SMILES: Cc1cnc(C(=O)Nc2ccc(F)c([C@]3(C)CC(=O)N(C)C(=N)N3)c2)cn1 [reference compound]

Caco-2 AP → BL (nm/s) (Iminopyrimidinone) [3]: 136 nm/s
SMILES: CN1C(=N)N[C@](C)(c2cc(-c3ccc(F)c(C#N)c3)cs2)CC1=O [reference compound]

Papp A→B at 2 h [1]: 18.9 ×10⁻⁶ cm/s
SMILES: CN1C(=N)N[C@](C)(c2cc(-c3ccc(F)c(C#N)c3)cs2)CS1(=O)=O [Example 46]

Papp A→B at 2 h [1]: 5.4 ×10⁻⁶ cm/s
SMILES: Cc1cnc(C(=O)Nc2ccc(F)c([C@]3(C)CS(=O)(=O)N(C)C(=N)N3)c2)cn1 [Example 36]
Change in rat cortex Aβ40 (Iminothiadiazine Dioxide) [2]: −25%

Ki [5]: ≥ 5 µM
SMILES: CCc1cc2cc(F)c([C@]3(C)CS(=O)(=O)N(C)C(=N)N3)cc2[nH]1 [Example 189]

Papp A→B at 2 h [1]: 12.8 ×10⁻⁶ cm/s
SMILES: CN1C(=N)N[C@](C)(c2cc(NC(=O)c3ccc(F)cn3)ccc2F)CS1(=O)=O [Example 25]
Change in rat cortex Aβ40 (Iminothiadiazine Dioxide) [2]: −49%

Papp A→B at 2 h [1]: 27.8 ×10⁻⁶ cm/s
SMILES: CC#Cc1cncc(-c2cc(Cl)c([C@]3(C)CS(=O)(=O)N(C)C(=N)N3)s2)c1 [Example 52]

Caco-2 AP → BL (nm/s) (Iminopyrimidinone) [3]: 22 nm/s
SMILES: CN1C(=N)N[C@](C)(c2cc(NC(=O)c3ccc(F)cn3)ccc2F)CC1=O [drawing 731, reference compound]

Ki [5]: ≥ 5 µM
SMILES: Cc1cnc(C(=O)Nc2cc([C@]3(C)CS(=O)(=O)N(C)C(=N)N3)ccn2)cn1 [Example 40x]

Papp A→B at 2 h [1]: 8.9 ×10⁻⁶ cm/s
SMILES: CN1C(=N)N[C@](C)(c2cc(NC(=O)c3ccc(C(F)(F)F)cn3)ccc2F)CS1(=O)=O [Example 26]
Change in rat cortex Aβ40 (Iminothiadiazine Dioxide) [2]: −33%

SMILES: CN1C(=N)N[C@](C)(c2c(F)ccc(NC(=O)c3ccc(F)cn3)c2F)CS1(=O)=O [Example 173]
Change in rat cortex Aβ40 (Iminothiadiazine Dioxide) [2]: −27% | Caco-2 AP → BL (nm/s) (Iminothiadiazine Dioxide) [3]: 126 nm/s

SMILES: COc1cnc(C(=O)Nc2cc(F)c(F)c([C@]3(C)CC(=O)N(C)C(=N)N3)c2)cn1 [drawing 713, reference compound]
Change in rat cortex Aβ40 (Iminopyrimidinone) [2]: +5%

Caco-2 AP → BL (nm/s) (Iminopyrimidinone) [3]: 174 nm/s
SMILES: CN1C(=N)N[C@](C)(c2cc(-c3cccc(C#N)c3)cs2)CC1=O [drawing 741, reference compound]

Papp A→B at 2 h [1]: 11.8 ×10⁻⁶ cm/s
SMILES: CN1C(=N)N[C@](C)(c2cc(NC(=O)c3ccc(Cl)cn3)ccc2F)CS1(=O)=O [Example 34]
Change in rat cortex Aβ40 (Iminothiadiazine Dioxide) [2]: −51%

efflux ratio at 2 h ([1]; Caco-2, Papp BL to AP / Papp AP to BL, iminopyrimidinone analog): 6.1 | Caco-2 AP → BL (nm/s) (Iminopyrimidinone) [3]: 25 nm/s
SMILES: CN1C(=N)N[C@](C)(c2cc(NC(=O)c3ccc(F)cn3)ccc2F)CC1=O [drawing 739, reference compound]

SMILES: CN1C(=N)N[C@](C)(c2cc(-c3cccc(C#N)c3)cs2)CC1=O [drawing 719, reference compound]
Change in rat cortex Aβ40 (Iminopyrimidinone) [2]: −5%

Assay (Area %), degradation flag ([6]; pH 7.4, 4° C., 2 days): — ((—) stands for >20% degradation) | Assay (Area %), degradation flag ([6]; pH 7.4, 4° C., 6 days): — ((—) stands for >20% degradation) | Assay (Area %), degradation flag ([6]; pH 7.4, 25° C., 2 days): — ((—) stands for >20% degradation) | Assay (Area %), degradation flag ([6]; pH 7.4, 25° C., 6 days): — ((—) stands for >20% degradation) | Assay (Area %), degradation flag ([6]; pH 7.4, 40° C., 2 days): — ((—) stands for >20% degradation) | Assay (Area %), degradation flag ([6]; pH 7.4, 40° C., 6 days): — ((—) stands for >20% degradation) | hydrolysis product [7]: 12.45%
SMILES: CN1C(=N)N[C@](C)(c2cc(-c3cccc(C#N)c3)cs2)CC1=O [Compound Z]

Caco-2 AP → BL (nm/s) (Iminopyrimidinone) [3]: 65 nm/s
SMILES: COc1cnc(C(=O)Nc2cc(F)c(F)c([C@]3(C)CC(=O)N(C)C(=N)N3)c2)cn1 [drawing 735, reference compound]

Papp A→B at 2 h [1]: 22.6 ×10⁻⁶ cm/s
SMILES: CN1C(=N)N[C@](C)(c2cc(-c3cccc(C#N)c3)cs2)CS1(=O)=O [Example 45]

Ki ([4]; about values): ≥ 500 nM
SMILES: CN1C(=N)N[C@](C)(c2cc(NC(=O)c3c(F)cncc3C(F)(F)F)cc(F)c2F)CS1(=O)=O [Example 40ex]

Ki ([4]; about values): ≥ 500 nM
SMILES: CN1C(=N)N[C@](C)(c2cccc(Nc3ncccc3C#N)n2)CS1(=O)=O [Example 164]

SMILES: CN1C(=N)N[C@](C)(c2cccs2)CS1(=O)=O [Example 19]
Ki [5]: ≥ 5 µM

Ki [5]: ≥ 5 µM
SMILES: CC[C@H]1[C@@](C)(c2cc(F)ccc2F)NC(=N)N(C)S1(=O)=O [Example 98]

SMILES: CN1C(=N)NC(C)(c2cc(NC(=O)N3CCCCC3)ccc2F)CS1(=O)=O (stereo not shown) [Example 160]
Ki [4]: ≥ 500 nM

Caco-2 AP → BL (nm/s) (Iminopyrimidinone) [3]: 0 nm/s
SMILES: Cc1ccc(C(=O)Nc2ccc(F)c([C@]3(C)CC(=O)N(C)C(=N)N3)c2)nc1 [reference compound]

Caco-2 AP → BL (nm/s) (Iminopyrimidinone) [3]: 0 nm/s
SMILES: CN1C(=N)N[C@](C)(c2cc(NC(=O)c3ccc(Cl)cn3)ccc2F)CC1=O [drawing 727, reference compound]

Ki ([4]; about values): ≥ 500 nM
SMILES: CN1C(=N)N[C@](C)(c2cc(NC(=O)N3CCOCC3)ccc2F)CS1(=O)=O [Example 161a]

SMILES: CN1C(=N)N[C@](C)(c2cc(NC(=O)c3ccc(F)cn3)ccc2F)CC1=O [drawing 717, reference compound]
Change in rat cortex Aβ40 (Iminopyrimidinone) [2]: −3%

Ki [5]: ≥ 5 µM
SMILES: CC1[C@@](C)(c2cccc(-c3cccc(C#N)c3)c2)NC(=N)N(C)S1(=O)=O (stereo partly shown) [Example 101]
